pEC50, pIC50: −log10 of the molar value. Read-outs that look alike come from different tables or passages of the source.
Legend:
[1] = biological target: human Werner helicase (WRN, amino acids 517-1235 with L1074F point mutation) (Homo sapiens (Human), UniProt Q14191, L1074F); test: WRN (BV08) ADP-Glo assay; assay type: biochemical; settings: human WRN (aa 517-1235, L1074F), read-out: ADP-Glo_hWRN_IC50
Summary of the method: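 ADP-Glo luminescence read after 60 min, 25 °C reaction of 0.15 nM WRN (517-1235, L1074F, Sf9-expressed, tag removed) with 0.1 nM DNA duplex and 5 μM ATP, following 15 min compound preincubation; 20 mM Bicine pH 7.5, 1% DMSO. IC50 from 3- or 4-parameter fit of % inhibition.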

[2] = tested on: p21 induction in HCT 116 cells; test: p21 induction in cells (In-Cell Western, p21/GAPDH ratio); assay type: cell-based; settings: 24 h compound incubation, read-out: p21_EC50
Summary of the method: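 EC50 values come from nonlinear fits of percent activation, defined by the 800/700 nm p21-to-GAPDH ratio scaled between DMSO (low) and internal WRN inhibitor (high) controls. In-Cell Western read after 24 h compound exposure of HCT 116 cells at 37° C. Duplicate 11-point series, 2-fold steps, usually starting at 10 μM.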

human Werner helicase (WRN, amino acids 517-1235 with L1074F point mutation), sequence (Q14191 other isoform, or with tags, fused parts or gaps L1074F (already in the parent)): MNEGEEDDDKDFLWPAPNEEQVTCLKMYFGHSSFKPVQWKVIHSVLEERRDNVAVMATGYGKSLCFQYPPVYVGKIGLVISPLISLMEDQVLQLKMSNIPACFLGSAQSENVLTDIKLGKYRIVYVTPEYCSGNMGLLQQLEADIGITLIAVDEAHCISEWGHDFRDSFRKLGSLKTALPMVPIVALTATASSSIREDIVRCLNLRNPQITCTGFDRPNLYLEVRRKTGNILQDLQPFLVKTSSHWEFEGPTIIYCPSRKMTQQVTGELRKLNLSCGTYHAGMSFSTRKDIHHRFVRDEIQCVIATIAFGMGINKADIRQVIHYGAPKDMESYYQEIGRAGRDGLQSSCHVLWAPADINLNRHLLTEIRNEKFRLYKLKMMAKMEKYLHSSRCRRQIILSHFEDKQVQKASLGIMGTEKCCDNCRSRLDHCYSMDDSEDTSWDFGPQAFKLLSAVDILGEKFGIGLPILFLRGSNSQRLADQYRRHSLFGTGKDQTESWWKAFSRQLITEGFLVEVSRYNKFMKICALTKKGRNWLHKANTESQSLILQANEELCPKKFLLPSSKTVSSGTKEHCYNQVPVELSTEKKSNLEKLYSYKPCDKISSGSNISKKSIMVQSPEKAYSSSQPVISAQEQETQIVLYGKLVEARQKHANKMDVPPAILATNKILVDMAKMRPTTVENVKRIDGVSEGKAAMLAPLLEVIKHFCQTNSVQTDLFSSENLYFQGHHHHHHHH

| pIC50 [1] | pEC50 ([2]; Homo sapiens) | pEC50 [2] | SMILES |
| --- | --- | --- | --- |
| 7.30 to 8.30 | ≥ 6.30 |  | CCc1c(N2CCN(C(=O)c3c(OCCOC)ncc(C)c3O)CC2)c(=O)c2nn(-c3ccnc(OC)c3)nc2n1CC(=O)NC12CC(C(C)C)(C1)C2 [Compound I-45, 2-(5-ethyl-6-{4-[4-hydroxy-2-(2-methoxyethoxy)-5-methylpyridine-3-carbonyl]piperazin-1-yl}-2-(2-methoxypyridin-4-yl)-7-oxo-2H,4H,7H-[1,2,3]triazolo[4,5-b]pyridin-4-yl)-N-[3-(propan-2-yl)bicyclo[1.1.1]pentan-1-yl]acetamide] |
| 7.30 to 8.30 | 5.70 to 6.30 |  | CCc1c(N2CCN(C(=O)c3c(OC)ncc(C4CC4)c3O)CC2)c(=O)c2nn(-c3ccnc(OC)c3)nc2n1CC(=O)NC12CC(C(C)C)(C1)C2 [Compound I-65, 2-{6-[4-(5-cyclopropyl-4-hydroxy-2-methoxypyridine-3-carbonyl)piperazin-1-yl]-5-ethyl-2-(2-methoxypyridin-4-yl)-7-oxo-2H,4H,7H-[1,2,3]triazolo[4,5-b]pyridin-4-yl}-N-[3-(propan-2-yl)bicyclo[1.1.1]pentan-1-yl]acetamide] |
| 7.30 to 8.30 |  | ≥ 6.30 | CCc1c(N2CCN(C(=O)c3c(OC)ncc(C)c3O)[C@H]3CC[C@@H]32)c(=O)c2nn(-c3ccnc(OC)c3)nc2n1CC(=O)NC12CC(C(C)C)(C1)C2 [Compound I-17, 2-(5-ethyl-6-((1S,6S)-5-(4-hydroxy-2-methoxy-5-methylnicotinoyl)-2,5-diazabicyclo[4.2.0]octan-2-yl)-2-(2-methoxypyridin-4-yl)-7-oxo-2,7-dihydro-4H-[1,2,3]triazolo[4,5-b]pyridin-4-yl)-N-(3-isopropylbicyclo[1.1.1]pentan-1-yl)acetamide] |
| 7.30 to 8.30 | 5.70 to 6.30 |  | CCc1c(N2CCN(C(=O)c3cnn(C)c3OC)[C@H]3CC[C@@H]32)c(=O)c2nn(C3=CCOCC3)nc2n1CC(=O)NC12CC(C(C)C)(C1)C2 [Compound I-210, 2-[2-(3,6-dihydro-2H-pyran-4-yl)-5-ethyl-6-[(1S,6S)-5-(5-methoxy-1-methyl-1H-pyrazole-4-carbonyl)-2,5-diazabicyclo[4.2.0]octan-2-yl]-7-oxo-2H,4H,7H-[1,2,3]triazolo[4,5-b]pyridin-4-yl]-N-[3-(propan-2-yl)bicyclo[1.1.1]pentan-1-yl]acetamide] |
| 7.30 to 8.30 |  | ≥ 6.30 | CCc1c(N2CCN(C(=O)c3ncnc(C)c3O)[C@H]3CC[C@@H]32)c(=O)c2nn(-c3cnn(C4CC4)c3)nc2n1CC(=O)NC12CC(C(C)C)(C1)C2 [Compound I-58, 2-[2-(1-cyclopropyl-1H-pyrazol-4-yl)-5-ethyl-6-[(1S,6S)-5-(5-hydroxy-6-methylpyrimidine-4-carbonyl)-2,5-diazabicyclo[4.2.0]octan-2-yl]-7-oxo-2H,4H,7H-[1,2,3]triazolo[4,5-b]pyridin-4-yl]-N-[3-(propan-2-yl)bicyclo[1.1.1]pentan-1-yl]acetamide] |
| 7.30 to 8.30 | 5.70 to 6.30 |  | CCc1c(N2CCN(C(=O)c3cnn(C)c3)[C@H]3CC[C@@H]32)c(=O)c2nn(C3=CCOCC3)nc2n1CC(=O)NC12CC(C(C)C)(C1)C2 [Compound I-206, 2-[2-(3,6-dihydro-2H-pyran-4-yl)-5-ethyl-6-[(1S,6S)-5-(1-methyl-1H-pyrazole-4-carbonyl)-2,5-diazabicyclo[4.2.0]octan-2-yl]-7-oxo-2H,4H,7H-[1,2,3]triazolo[4,5-b]pyridin-4-yl]-N-[3-(propan-2-yl)bicyclo[1.1.1]pentan-1-yl]acetamide] |
| 7.30 to 8.30 | ≥ 6.30 |  | CCc1c(C2=CCN(C(=O)c3ncnc(C)c3O)C[C@H]2C)c(=O)c2nn(-c3ccnc(OC)c3)nc2n1CC(=O)NC12CC(C(C)C)(C1)C2 (single isomer, unassigned) [Compound I-80] |
| 7.30 to 8.30 | ≥ 6.30 |  | CCc1c(N2CCN(C(=O)c3ncnc(C)c3O)[C@H]3CC[C@@H]32)c(=O)c2nn(-c3ccnc(OC)c3)nc2n1CC(=O)NC12CC(C(C)(F)F)(C1)C2 [Compound I-27, N-(3-(1,1-difluoroethyl)bicyclo[1.1.1]pentan-1-yl)-2-(5-ethyl-6-((1S,6S)-5-(5-hydroxy-6-methylpyrimidine-4-carbonyl)-2,5-diazabicyclo[4.2.0]octan-2-yl)-2-(2-methoxypyridin-4-yl)-7-oxo-2,7-dihydro-4H-[1,2,3]triazolo[4,5-b]pyridin-4-yl)acetamide] |
| 7.30 to 8.30 |  | ≥ 6.30 | CCc1c(N2CCN(C(=O)c3ncnc(C)c3O)[C@H]3CC[C@@H]32)c(=O)c2nn(-c3ccnc(OC)c3)nc2n1CC(=O)NC12CC(C(F)(F)F)(C1)C2 [Compound I-54, 2-{5-ethyl-6-[(1S,6S)-5-(5-hydroxy-6-methylpyrimidine-4-carbonyl)-2,5-diazabicyclo[4.2.0]octan-2-yl]-2-(2-methoxypyridin-4-yl)-7-oxo-2H,4H,7H-[1,2,3]triazolo[4,5-b]pyridin-4-yl}-N-[3-(trifluoromethyl)bicyclo[1.1.1]pentan-1-yl]acetamide] |
| 7.30 to 8.30 | ≥ 6.30 |  | CCc1c(N2CCN(C(=O)c3c(OC)ncc(OC)c3O)CC2)c(=O)c2nn(-c3ccnc(OC)c3)nc2n1CC(=O)NC12CC(C(C)C)(C1)C2 [Compound I-64, 2-{5-ethyl-6-[4-(4-hydroxy-2,5-dimethoxypyridine-3-carbonyl)piperazin-1-yl]-2-(2-methoxypyridin-4-yl)-7-oxo-2H,4H,7H-[1,2,3]triazolo[4,5-b]pyridin-4-yl}-N-[3-(propan-2-yl)bicyclo[1.1.1]pentan-1-yl]acetamide] |
| 7.30 to 8.30 | ≥ 6.30 |  | CCc1c(N2CCN(C(=O)c3ncnc(C)c3O)[C@H]3CC[C@@H]32)c(=O)c2nn(-c3ccnc(OC)c3)nc2n1CC(=O)NC12CC(C(F)(F)F)(C1)C2 [Compound I-11, 2-(5-ethyl-6-((1S,6S)-5-(5-hydroxy-6-methylpyrimidine-4-carbonyl)-2,5-diazabicyclo[4.2.0]octan-2-yl)-2-(2-methoxypyridin-4-yl)-7-oxo-2,7-dihydro-4H-[1,2,3]triazolo[4,5-b]pyridin-4-yl)-N-(3-(trifluoromethyl)bicyclo[1.1.1]pentan-1-yl)acetamide] |
| 7.30 to 8.30 | ≥ 6.30 |  | CCc1c(N2CCN(C(=O)c3ncnc(C)c3O)[C@H]3CC[C@@H]32)c(=O)c2nn(C3=CC(C)OCC3)nc2n1CC(=O)NC12CC(C3CC3)(C1)C2 (stereo partly drawn) [Compound I-164, N-{3-cyclopropylbicyclo[1.1.1]pentan-1-yl}-2-{5-ethyl-6-[(1S,6S)-5-(5-hydroxy-6-methylpyrimidine-4-carbonyl)-2,5-diazabicyclo[4.2.0]octan-2-yl]-2-(6-methyl-3,6-dihydro-2H-pyran-4-yl)-7-oxo-2H,4H,7H-[1,2,3]triazolo[4,5-b]pyridin-4-yl}acetamide] |
| ≥ 8.30 | ≥ 6.30 |  | CCc1c(N2CCN(C(=O)c3ncnc(C)c3O)[C@H]3CC[C@@H]32)c(=O)c2nn([C@@H]3CC3(F)F)nc2n1CC(=O)Nc1ccc(C(F)(F)F)cc1Cl (single isomer, unassigned) [Compound I-215] |
| ≥ 8.30 | ≥ 6.30 |  | CCc1c(N2CCN(C(=O)c3ncc4c(c3O)OCC4)CC2)c(=O)c2nn(C3=CCOCC3)nc2n1CC(=O)Nc1ccc(C(F)(F)F)cc1Cl [Compound I-109, N-[2-chloro-4-(trifluoromethyl)phenyl]-2-[2-(3,6-dihydro-2H-pyran-4-yl)-5-ethyl-6-(4-{7-hydroxy-2H,3H-furo[3,2-c]pyridine-6-carbonyl}piperazin-1-yl)-7-oxo-2H,4H,7H-[1,2,3]triazolo[4,5-b]pyridin-4-yl]acetamide] |
| 7.30 to 8.30 | ≥ 6.30 |  | CCc1c(N2CCN(C(=O)c3cncnc3OC)[C@H]3CC[C@@H]32)c(=O)c2nn(C3=CCOCC3)nc2n1CC(=O)NC12CC(C(C)C)(C1)C2 [Compound I-201, 2-[2-(3,6-dihydro-2H-pyran-4-yl)-5-ethyl-6-[(1S,6S)-5-(4-methoxypyrimidine-5-carbonyl)-2,5-diazabicyclo[4.2.0]octan-2-yl]-7-oxo-2H,4H,7H-[1,2,3]triazolo[4,5-b]pyridin-4-yl]-N-[3-(propan-2-yl)bicyclo[1.1.1]pentan-1-yl]acetamide] |
| ≥ 8.30 | ≥ 6.30 |  | CCc1c(N2CCN(C(=O)c3c(OC)ncc(C)c3O)[C@H]3CC[C@@H]32)c(=O)c2nn(-c3ccnc(OC)c3)nc2n1CC(=O)Nc1ccc(C(F)(F)F)cc1F [Compound I-102, 2-{5-ethyl-6-[(1S,6S)-5-(4-hydroxy-2-methoxy-5-methylpyridine-3-carbonyl)-2,5-diazabicyclo[4.2.0]octan-2-yl]-2-(2-methoxypyridin-4-yl)-7-oxo-2H,4H,7H-[1,2,3]triazolo[4,5-b]pyridin-4-yl}-N-[2-fluoro-4-(trifluoromethyl)phenyl]acetamide] |
| 7.30 to 8.30 | ≥ 6.30 |  | CCc1c(N2CCN(C(=O)c3c(OC)ncc(C)c3O)[C@H]3CC[C@@H]32)c(=O)c2nn(-c3ccnc(OC)c3)nc2n1CC(=O)NC1CC2(CCC2)C1 [Compound I-93, 2-{5-ethyl-6-[(1S,6S)-5-(4-hydroxy-2-methoxy-5-methylpyridine-3-carbonyl)-2,5-diazabicyclo[4.2.0]octan-2-yl]-2-(2-methoxypyridin-4-yl)-7-oxo-2H,4H,7H-[1,2,3]triazolo[4,5-b]pyridin-4-yl}-N-{spiro[3.3]heptan-2-yl}acetamide] |
